{"source": "patent US20250144099A1", "about": "“INK4 TUMOR SUPPRESSOR PROTEINS MEDIATE RESISTANCE TO CDK4/6 KINASE INHIBITORS” (MEMORIAL SLOAN-KETTERING CANCER CENTER, priority 2021, published 2025)", "key": {"CDK6": {"target": "CDK6 (Homo sapiens, UniProt Q00534)", "sequence (Q00534 whole entry)": "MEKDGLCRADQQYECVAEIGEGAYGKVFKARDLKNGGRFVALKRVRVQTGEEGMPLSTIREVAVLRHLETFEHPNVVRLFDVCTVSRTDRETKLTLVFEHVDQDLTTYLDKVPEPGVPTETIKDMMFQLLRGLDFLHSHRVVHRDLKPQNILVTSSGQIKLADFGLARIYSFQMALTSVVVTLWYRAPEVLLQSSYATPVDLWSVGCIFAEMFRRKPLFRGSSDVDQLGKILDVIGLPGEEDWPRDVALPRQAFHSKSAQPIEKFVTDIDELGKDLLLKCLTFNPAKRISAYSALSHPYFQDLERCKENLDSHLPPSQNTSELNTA", "assay": "Immunoblotting of CDK6 degradation in cells", "format": "cell-based", "parameters": "MCF7 cells that lost FAT1 expression and with high CDK6 expression; endogenous in cells; host or cells: MCF-7 FAT1 loss cells (also MCF-7 parental)", "method": "(§1) Cell lysates were collected in RIPA buffer (Thermo Fisher Scientific) supplemented with protease and phosphatase inhibitors (Pierce). Protein concentration was quantified by using the BCA kit (Fisher Scientific). […] of protein lysates were loaded onto 4-12% SDS-PAGE gels (Invitrogen) for electrophoresis and transferred onto nitrocellular membranes. Blots were blocked with Intercept™ (TBS) Blocking Buffer (LI-COR Bioscience #927-60001) and incubated with primary antibody at 4° C. overnight. Secondary antibodies conjugated with fluorescence (LI-COR Bioscience #926-68071 and #926-32210) were incubated for 1 h at room temperature and blots were scanned by Odyssey Clx Imaging System from LI-COR Bioscience."}, "CDK4": {"target": "T1, CDK4 (Homo sapiens, UniProt P11802)", "T1 construct": "CDK4 and CDK6 were immunoprecipitated from isogenic drug sensitive (MCF7 parental cells with low CDK6); endogenous in cells; host or cells: MCF-7 parental and MCF-7 FAT1 CRISPR knockout (CDK6-high) cells", "T1 sequence (P11802 whole entry)": "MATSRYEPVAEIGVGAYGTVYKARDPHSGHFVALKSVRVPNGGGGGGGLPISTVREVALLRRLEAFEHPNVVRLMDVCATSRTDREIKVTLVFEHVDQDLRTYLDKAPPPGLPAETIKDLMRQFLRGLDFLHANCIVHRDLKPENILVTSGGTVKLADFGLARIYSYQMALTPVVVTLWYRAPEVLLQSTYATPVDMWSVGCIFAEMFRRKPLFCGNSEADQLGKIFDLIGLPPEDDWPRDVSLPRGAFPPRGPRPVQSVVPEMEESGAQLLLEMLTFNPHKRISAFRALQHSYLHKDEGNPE", "T1 sequence (P24385 whole entry partner)": "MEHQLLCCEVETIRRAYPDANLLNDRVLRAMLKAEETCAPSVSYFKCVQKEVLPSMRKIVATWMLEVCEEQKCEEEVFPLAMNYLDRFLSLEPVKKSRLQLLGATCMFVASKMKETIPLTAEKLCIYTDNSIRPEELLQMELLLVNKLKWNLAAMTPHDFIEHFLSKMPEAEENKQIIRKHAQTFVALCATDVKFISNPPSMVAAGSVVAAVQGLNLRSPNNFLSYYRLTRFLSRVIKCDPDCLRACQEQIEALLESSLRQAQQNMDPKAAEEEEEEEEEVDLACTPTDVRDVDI", "assay": "Immunoblotting of CDK4 degradation in cells", "format": "cell-based", "method": "as §1"}, "phosphorylation of Rb": {"system": "phosphorylation of Rb", "assay": "Immunoblotting of Rb phosphorylation in cells", "format": "cell-based, human", "details": "FAT1 loss / CDK6-high CDK4/6i-resistant MCF7 cells", "method": "as §1"}, "[1]": {"system": "CDK6-overexpressing xenografts", "assay": "Efficacy study, cell-derived xenograft", "format": "in vivo, NSG mice", "details": "25-35 days", "method": "(§2) Efficacy study. NOD.Cg-Prkdc Il2rg<tm1Wjl>/SzJ (NSG) mice were obtained from the Jackson Laboratory (Stock #: 005557). Each mouse was injected with MCF7 parental, CDK6-ovexpressing or PTEN loss cells subcutaneously 1 week after the implantation of estradiol pellets (25 mg). […] Tumor volumes were recorded every 3-4 days. Mice were sacrificed if tumors reached 1000 mm^3 or at the end of the experiment. Tumors were collected and processed as described above."}, "[2]": {"system": "shPTEN (PTEN loss) xenografts", "assay": "Efficacy study, cell-derived xenograft", "format": "in vivo, NSG mice", "details": "25-35 days", "method": "as §2"}, "[3]": {"system": "MCF7 parental cell-derived xenografts", "assay": "Efficacy study, cell-derived xenograft", "format": "in vivo, NSG mice", "details": "ribociclib 25 mg/kg p.o., BSJ-05-017 50 mg/kg i.p., BSJ-03-096 50 mg/kg p.o., 25-35 days", "method": "as §2"}, "[4]": {"system": "patient-derived xenograft models", "assay": "Patient-derived xenograft tumor growth", "format": "in vivo, mice", "details": "two patient-derived xenograft models; ribociclib at clinical equivalent dose"}, "Pharmacokinetic study": {"assay": "Pharmacokinetic study", "format": "in vivo, C57BL/6 male mice", "method": "Pharmacokinetic study. C57BL/6 male mice were dosed with BSJ-05-017 solution formulation (i.p., 5/95 DMSO/10% captisol, dose 25 mg/kg) and BSJ-03-096 solution formulation (p.o., 5/95 DMSO/10%, dose 10 mg/kg). Blood samples were collected at 0.08, 0.25, 0.5, 1, 2, 4, 6, 8 and 24 hr. The blood samples were collected from sets of three mice at each time point in microcentrifuge tubes containing K2EDTA as an anticoagulant. Plasma samples were separated by centrifugation and stored below −70° C. until bioanalysis. All samples were processed for analysis by precipitation using acetonitrile and analyzed with a partially validated LC/MS/MS method (LLOQ −1.22 ng/mL for IV and PO, LLOQ −5.02 ng/mL for IP). Pharmacokinetic parameters were calculated using the noncompartmental analysis tool of WinNonlin Enterprise software (Version 6.3)."}, "MOLT4 cells": {"system": "MOLT4 cells", "assay": "Global quantitative mass spectrometry proteomics", "format": "cell-based, human", "details": "250 nM, 5 h", "method": "Molt4 cells were treated with 250 nM of compounds BSJ-05-017 or BSJ-03-096 (singlicate) or DMSO control (biological triplicate) for 5 hours. Cells were harvested by centrifugation and prepared for mass spectrometry as described previously (28). Data were collected as reported (28). LC-MS data were analyzed using Proteome Discoverer 2.4 (Thermo Fisher Scientific), as previously described (28). Reporter ion intensities were normalized and scaled using in-house scripts in the R framework (63). Statistical analysis was carried out using the limma package within the R framework (64)."}, "MCF-7 parental cells": {"system": "MCF-7 parental cells", "assay": "Cell viability assay (Resazurin)", "format": "cell-based, human", "details": "day 7", "method": "(§3) Cell viability was measured by Resazurin (R&D Systems, Minneapolis, MN, USA) as described previously (51). Briefly, 1,500 cells were seeded in a 96-well plate and allowed to recover overnight. Cells were treated with drugs at day 0. Resazurin was added to the cells 4 hours prior to the measurements on day 3, day 5 and day 7. Fluorescent intensity was measured using a microplate reader (SpectraMax M5, Molecular Devices, Sunnyvale, CA, USA). IC50 was calculated by GraphPad Prism 7.0 using a sigmoidal regression model."}, "[5]": {"system": "MCF-7 CDK6-high cells (FAT1 loss)", "assay": "Cell viability assay (Resazurin)", "format": "cell-based, human", "details": "day 7", "method": "as §3"}, "[6]": {"details": "FAT1 loss / CDK6-high CDK4/6i-resistant MCF7 cells, 24 h treatment"}, "[7]": {"details": "MCF7 cells with overexpression of CDK6"}, "[8]": {"details": "BSJ-05-017 50 mg/kg i.p., BSJ-03-096 50 mg/kg p.o."}}, "note": "“Also recorded” adds a separate entry of the source."}
{"smiles": "CC(=O)c1c(C)c2cnc(Nc3ccc(N4CCN(CCC5CC(CNc6cccc7c6C(=O)N(C6CCC(=O)NC6=O)C7=O)C5)CC4)cn3)nc2n(C2CCCC2)c1=O", "note": "(stereo not drawn) [AM-01-125, 4-(((3-(2-(4-(6-((6-acetyl-8-cyclopentyl-5-methyl-7-oxo-7,8-dihydropyrido[2,3-d]pyrimidin-2-yl)amino)pyridin-3-yl)piperazin-1-yl)ethyl)cyclobutyl)methyl)amino)-2-(2,6-dioxopiperidin-3-yl)isoindoline-1,3-dione]", "values": [{"measurement": "degradation of CDK6", "setting": "CDK6; [6]", "value": "effectively degrade CDK4/CDK6"}, {"measurement": "degradation of CDK4", "setting": "CDK4; [6]", "value": "effectively degrade CDK4/CDK6"}, {"measurement": "inhibition of phosphorylation of Rb (and downstream E2F1/cyclin A2)", "setting": "phosphorylation of Rb", "value": "inhibit phosphorylation of Rb"}]}
{"smiles": "CC(=O)c1c(C)c2cnc(Nc3ccc(N4CCN(CCC5CCN(c6ccc7c(c6)C(=O)N(C6CCC(=O)NC6=O)C7=O)CC5)CC4)cn3)nc2n(C2CCCC2)c1=O", "note": "(stereo not drawn) [AM-01-269, 5-(4-(2-(4-(6-((6-acetyl-8-cyclopentyl-5-methyl-7-oxo-7,8-dihydropyrido[2,3-d]pyrimidin-2-yl)amino)pyridin-3-yl)piperazin-1-yl)ethyl)piperidin-1-yl)-2-(2,6-dioxopiperidin-3-yl)isoindoline-1,3-dione]", "values": [{"measurement": "degradation of CDK6", "setting": "CDK6; [6]", "value": "effective in degrading CDK4/6"}, {"measurement": "degradation of CDK4", "setting": "CDK4; [6]", "value": "effective in degrading CDK4/6"}, {"measurement": "inhibition of phosphorylation of Rb (and downstream E2F1/cyclin A2)", "setting": "phosphorylation of Rb", "value": "inhibiting phosphorylation of Rb"}]}
{"smiles": "CC(=O)c1c(C)c2cnc(Nc3ccc(N4CCN(CCC5CCCCN5c5ccc6c(c5)C(=O)N(C5CCC(=O)NC5=O)C6=O)CC4)cn3)nc2n(C2CCCC2)c1=O", "note": "(stereo not drawn) [AM-01-275, 6-(2-(2-(4-(6-((6-acetyl-8-cyclopentyl-5-methyl-7-oxo-7,8-dihydropyrido[2,3-d]pyrimidin-2-yl)amino)pyridin-3-yl)piperazin-1-yl)ethyl)piperidin-1-yl)-2-(2,6-dioxopiperidin-3-yl)-3a,4-dihydro-1H-isoindole-1,3(2H)-dione]", "values": [{"measurement": "degradation of CDK6", "setting": "CDK6; [6]", "value": "effective in degrading CDK4/6"}, {"measurement": "degradation of CDK4", "setting": "CDK4; [6]", "value": "effective in degrading CDK4/6"}, {"measurement": "inhibition of phosphorylation of Rb (and downstream E2F1/cyclin A2)", "setting": "phosphorylation of Rb", "value": "inhibiting phosphorylation of Rb"}]}
{"smiles": "CC(=O)c1c(C)c2cnc(Nc3ccc(N4CCN(CC5CCN(c6ccc7c(c6)C(=O)N(C6CCC(=O)NC6=O)C7=O)CC5)CC4)cn3)nc2n(C2CCCC2)c1=O", "note": "(stereo not drawn) [BSJ-03-096, 5-(4-((4-(6-((6-acetyl-8-cyclopentyl-5-methyl-7-oxo-7,8-dihydropyrido[2,3-d]pyrimidin-2-yl)amino)pyridin-3-yl)piperazin-1-yl)methyl)piperidin-1-yl)-2-(2,6-dioxopiperidin-3-yl)isoindoline-1,3-dione]", "values": [{"measurement": "degradation of CDK6", "setting": "CDK6; [6]", "value": "most significant degradation of both CDK4 and CDK6; also recorded: effective in degrading both CDK4 and CDK6; also recorded: high potency in degrading CDK4 and CDK6"}, {"measurement": "degradation of CDK6", "setting": "CDK6; [7]", "value": "effectively degrade CDK4 and CDK6"}, {"measurement": "degradation of CDK4", "setting": "CDK4; [6]", "value": "most significant degradation of both CDK4 and CDK6; also recorded: effective in degrading both CDK4 and CDK6; also recorded: high potency in degrading CDK4 and CDK6"}, {"measurement": "degradation of CDK4", "setting": "CDK4; [7]", "value": "effectively degrade CDK4 and CDK6"}, {"measurement": "durable tumor inhibition (percent)", "setting": "[1]; [8]", "value": "−68.9", "unit": "%"}, {"measurement": "durable tumor inhibition (percent)", "setting": "[2]; [8]", "value": "−54.9", "unit": "%"}, {"measurement": "tumor response", "setting": "[3]", "value": "sensitive"}, {"measurement": "inhibition of tumor growth", "setting": "[4]", "value": "effective in inhibiting tumor growth"}, {"measurement": "Cmax", "setting": "Pharmacokinetic study; male, C57BL/6, mouse, plasma, po, single dose 10 mg/kg p.o.", "value": 900, "unit": "nM"}, {"measurement": "concentration at 24 h", "setting": "Pharmacokinetic study; male, C57BL/6, mouse, plasma, po, single dose 10 mg/kg p.o., read-out: plasma concentration at 24h post dosing", "value": "~100", "unit": "nM"}, {"measurement": "metabolic stability", "setting": "Pharmacokinetic study; single dose in mice, i.p. or p.o.", "value": "good metabolic stability"}, {"measurement": "selectivity in global proteomics", "setting": "MOLT4 cells", "value": "highly selective for CDK4 and CDK6"}, {"measurement": "inhibition of phosphorylation of Rb (and downstream E2F1/cyclin A2)", "setting": "phosphorylation of Rb", "value": "efficiently inhibit the phosphorylation of Rb protein; also recorded: effective inhibition of the phosphorylation of Rb"}]}
{"smiles": "CC(=O)c1c(C)c2cnc(Nc3ccc(N4CCN(CCOCCOCCOCCNC(=O)COc5cccc6c5C(=O)N(C5CCC(=O)NC5=O)C6=O)CC4)cn3)nc2n(C2CCCC2)c1=O", "note": "(stereo not drawn) [BSJ-03-123, N-(2-(2-(2-(2-(4-(6-((6-acetyl-8-cyclopentyl-5-methyl-7-oxo-7,8-dihydropyrido[2,3-d]pyrimidin-2-yl)amino)pyridin-3-yl)piperazin-1-yl)ethoxy)ethoxy)ethoxy)ethyl)-2-((2-(2,6-dioxopiperidin-3-yl)-1,3-dioxoisoindolin-4-yl)oxy)acetamide, reference compound]", "values": [{"measurement": "degradation of CDK6", "setting": "CDK6; [6]", "value": "dose dependent targeting of CDK6; also recorded: effective CDK6 degradation; also recorded: dose-dependent degradation of CDK6"}, {"measurement": "degradation of CDK4", "setting": "CDK4; [6]", "value": "not CDK4; also recorded: no effect on CDK4"}, {"measurement": "inhibition of cell growth", "setting": "MCF-7 parental cells", "value": "does not effectively inhibit the growth"}, {"measurement": "inhibition of cell growth", "setting": "[5]", "value": "does not effectively inhibit the growth"}]}
{"smiles": "CC(=O)c1c(C)c2cnc(Nc3ccc(N4CCN(CCC5CCN(c6cccc7c6C(=O)N(C6CCC(=O)NC6=O)C7=O)CC5)CC4)cn3)nc2n(C2CCCC2)c1=O", "note": "(stereo not drawn) [MS-01-303, 4-(4-(2-(4-(6-((6-acetyl-8-cyclopentyl-5-methyl-7-oxo-7,8-dihydropyrido[2,3-d]pyrimidin-2-yl)amino)pyridin-3-yl)piperazin-1-yl)ethyl)piperidin-1-yl)-2-(2,6-dioxopiperidin-3-yl)isoindoline-1,3-dione]", "values": [{"measurement": "degradation of CDK6", "setting": "CDK6; [6]", "value": "effectively degrade CDK4/CDK6"}, {"measurement": "degradation of CDK4", "setting": "CDK4; [6]", "value": "effectively degrade CDK4/CDK6"}, {"measurement": "inhibition of phosphorylation of Rb (and downstream E2F1/cyclin A2)", "setting": "phosphorylation of Rb", "value": "inhibit phosphorylation of Rb"}]}
{"smiles": "CC(=O)c1c(C)c2cnc(Nc3ccc(N4CCN(CCCC5CCN(c6cccc7c6C(=O)N(C6CCC(=O)NC6=O)C7=O)CC5)CC4)cn3)nc2n(C2CCCC2)c1=O", "note": "(stereo not drawn) [MS-02-24]", "values": [{"measurement": "degradation of CDK6", "setting": "CDK6; [6]", "value": "effective in degrading CDK4/6"}, {"measurement": "degradation of CDK4", "setting": "CDK4; [6]", "value": "effective in degrading CDK4/6"}, {"measurement": "inhibition of phosphorylation of Rb (and downstream E2F1/cyclin A2)", "setting": "phosphorylation of Rb", "value": "inhibiting phosphorylation of Rb"}]}
{"smiles": "CN(C)C(=O)c1cc2cnc(Nc3ccc(N4CCNCC4)cn3)nc2n1C1CCCC1", "note": "[ribociclib, reference compound]", "values": [{"measurement": "tumor response", "setting": "[1]; ribociclib 25 mg/kg p.o.", "value": "tumor outgrowth after initial response"}, {"measurement": "tumor response", "setting": "[2]; ribociclib 25 mg/kg p.o.", "value": "tumor outgrowth after initial response"}, {"measurement": "tumor response", "setting": "[3]", "value": "sensitive"}, {"measurement": "inhibition of tumor growth", "setting": "[4]", "value": "does not inhibit their growth effectively"}]}
